Source: patent US5948884A, “Cyclosporin derivatives with anti-HIV effect” (priority 1995, dated 1999)
Values after ≈ are worked out from the molar mass of the structure shown.

Columns and labels:
[1] = tested on: HIV-1 (strain IIIB); details: MT4 cells infected with HIV-1 IIIB; p24 ELISA on third and fourth days after infection
Method: Test for Antiviral Activity
HIV-1 (strain IIIB) was adsorbed on the cells for 2 hours at 37°. The inoculum was then removed and the infected cells were transferred to tissue culture plates which contained the test compound at different concentrations. In this context, the virus inoculum was chosen such that the concentration of viral p24 antigen increased exponentially in the cell supernatant up to the fourth day after the infection. On the third and fourth days after the infection, the cell supernatants were analyzed by ELISA for p24 antigen. IC50 values were determined by comparing the p24 concentrations in the supernatant from the infected, substance-treated cells and in the supernatant from the untreated infected control cells.

[2] = tested on: HIV; details: relative to the most strongly active substances of EP 484 281; cited from earlier work

C/C=C/C[C@@H](C)[C@@H](O)[C@H]1C(=O)N[C@@H](CC)C(=O)N(C)[C@H](CO)C(=O)N(C)[C@@H](CC(C)(C)O)C(=O)N[C@@H](C(C)C)C(=O)N(C)[C@@H](CC(C)C)C(=O)N[C@@H](C)C(=O)N[C@H](C)C(=O)N(C)[C@@H](CC(C)C)C(=O)N(C)[C@@H](CC(C)C)C(=O)N(C)[C@@H](C(C)C)C(=O)N1C [3-N-methyl-(D)-serine-4-(gamma-hydroxy)-N-methylleucinecyclosporin]
IC50 (p24 antigen in cell supernatant) [1]: 0.1 µg/mL (≈ 0.0801 µM)

(gamma-hydroxy-N-methylleucine)cyclosporin
activity against HIV, times weaker than MeIle-4-cyclosporin or MeVal-4-cyclosporin [2]: 5-6 times
